The values that follow come from patent US8519123B2, “Pyrrolo[2,1-C][1,4]benzodiazepine linked imidazo[1,5-A]pyridine conjugates as potential antitumour agents and process for the preparation thereof” (Council of Scientific and Industrial Research, priority 2010, dated 2013).

In test [1] the test system is cervical cancer cell line (Hela). Kind of test: In vitro cytotoxicity, MTT assay, 48 h continuous drug exposure. As to conditions: Hela cells, 48 h exposure. It is filed as cell-based, human. On the procedure: (§1) In vitro biological activity studies were carried out at the pharmacology division, IICT, Hyderabad. The compounds were evaluated for in vitro anticancer activity against five tumour cell lines derived from five cancer types (breast, cervix, mouse melanoma, lung and liver cancer) as shown in Table 2. For each compound, dose response curves for each cell line were measured at a minimum of five concentrations at 10 fold dilutions. A protocol of 48 h continuous drug exposure was used and a MTT assay was used to estimate cell viability or growth. The concentration causing 50% inhibition (IC50) compared with the control was calculated. Compounds 7a-7l have been evaluated for their in vitro cytotoxicity in five cell lines from five human cancer types. The results are expressed as IC50 determined relative to that of untreated control cells (Table-2).

The test system of test [2] is lung cancer cell line (A549). Described as above. It is filed as cell-based, human. Particulars: A549 cells, 48 h exposure. On the procedure: as §1
Test [3] has as its system liver cancer cell line (Hepg2). Described as above. It is filed as cell-based, human. Particulars: Hepg2 cells, 48 h exposure. The procedure: as §1
The test system of test [4] is breast cancer cell line (MCF-7). The description is as above. It is filed as cell-based, human. Particulars: 48 h exposure. On the procedure:
as §1

Test [5] has as its system mouse melanoma cancer cell line (B16). The test is described as above. It is filed as cell-based. As to conditions: B16 cells, 48 h exposure. On the procedure:
as §1

A further test has as its system calf thymus DNA (CT-DNA). Kind of test: Thermal denaturation studies with duplex-form calf thymus DNA (DNA binding affinity). Particulars: [PBD]:[DNA] molar ratio 1:5, CT-DNA 100 μM, ligand 20 μM, sodium phosphate buffer pH 7.00; for (ΔTm ° C.) after incubation at 37° C. for 0 h: 0 h incubation at 37° C.; for (ΔTm ° C.) after incubation at 37° C. for 18 h: 18 h incubation at 37° C. On the procedure:
Compounds have been subjected to thermal denaturation studies with duplex-form calf thymus DNA (CT-DNA) using a modification of a reported procedure (Newman, M. S. Carcinog-compr. Surv. 1976, 1, 203; (b) Hecht, S. S.; Loy, M.; Hoffman, Carcinog-compr. Surv. 1976, 1, 325). Working solutions in aqueous buffer (10 mM NaH2PO4/Na2HPO4, 1 mM Na2EDTA, pH 7.00+0.01) containing CT-DNA (100 μm in phosphate) and the PBD (20 μm) have been prepared by addition of concentrated PBD solutions in DMSO to obtain a fixed [PBD]/[DNA] molar ratio of 1:5. The DNA-PBD solutions have been incubated at 37° C. for 0 and 18 h prior to analysis. Samples have been monitored at 260 nm using a Beckman DU-800 spectrophotometer fitted with high performance temperature controller, and heated at 1° C. min^−1 in the 40-110° C. range. DNA helix→coil transition temperatures (Tm) have been obtained from the maxima in the d(A260)/dT derivative plots. Drug-induced alterations in DNA melting behavior are given by: ΔTm=Tm(DNA+PBD)−Tm(DNA alone), where the Tm value for the PBD-free CT-DNA is 69.1±0.01.
The DNA binding activity for these novel C8-linked imidazo[1,5-a]pyridine PBD hybrids has been examined by thermal denaturation studies using calf thymus (CT) DNA. […] The data for the compounds 7a-l is included in Table 1 for comparison.

Setting [6] is: Homo sapiens, MCF7, MCF-7 cells.

`COc1cc2c(cc1OCCCN1CCN(C(=O)c3nc(-c4ccccc4)n4ccccc34)CC1)N=C[C@@H]1CCCN1C2=O` [7a, (11aS)-7-methoxy-8-(3-4-[(3-phenylimidazo[1,5-a]pyridin-yl)carbonyl]piperazinopropoxy)-2,3,5,11a-tetrahydro-1H-benzo[e]pyrrolo[1,2-a]azepin-5-one]: the half-maximal inhibitory concentration (IC50) worked out at 2100 nM in test [1] (Homo sapiens, HeLa, 48 h); 7100 nM in test [2] (Homo sapiens); 2700 nM in test [3] (Homo sapiens, HepG2, 48 h); 1200 nM in test [4] (setting [6]); 2800 nM in test [5] (Mus musculus). The “(ΔTm ° C.) after incubation at 37° C. for 0 h” value in the test with calf thymus DNA (CT-DNA) was found to be 6.0 °C. Besides, the “(ΔTm ° C.) after incubation at 37° C. for 18 h” value in the test with calf thymus DNA (CT-DNA) amounted to 8.9 °C.

For the molecule `COc1cc2c(cc1OCCCCCCN1CCN(C(=O)c3nc(-c4ccccc4)n4ccccc34)CC1)N=C[C@@H]1CCCN1C2=O` [7d], the half-maximal inhibitory concentration (IC50) turned out to be 3970 nM in test [1] (Homo sapiens, HeLa, 48 h); 12400 nM in test [2] (Homo sapiens); 3060 nM in test [3] (Homo sapiens, HepG2, 48 h); 3310 nM in test [4] (setting [6]); 1490 nM in test [5] (Mus musculus). Further, in the test on calf thymus DNA (CT-DNA), the “(ΔTm ° C.) after incubation at 37° C. for 0 h” value worked out at 7.0 °C. Further, in the test with calf thymus DNA (CT-DNA), the “(ΔTm ° C.) after incubation at 37° C. for 18 h” value came to 8.0 °C.

Consider `C1=CC2=CN=c3ccccc3=CN2C1` [DC-81, pyrrolo[2,1-c][1,4]benzodiazepine], for which the IC50 in test [1] (Homo sapiens, HeLa, 48 h) came to 2140 nM; in test [2] (Homo sapiens) it was 380 nM; in test [3] (Homo sapiens, HepG2, 48 h), 2200 nM; in test [4] (setting [6]), 2190 nM; in test [5] (Mus musculus), 1830 nM. For the same molecule, the “(ΔTm ° C.) after incubation at 37° C. for 0 h” value in the test with calf thymus DNA (CT-DNA) is 0.3 °C. For the same molecule, the “(ΔTm ° C.) after incubation at 37° C. for 18 h” value with calf thymus DNA (CT-DNA) amounted to 0.7 °C.

Turning to `COc1cc2c(cc1OCCCCN1CCN(C(=O)c3nc(-c4ccccc4)n4ccccc34)CC1)N=C[C@@H]1CCCN1C2=O` [7b, (11aS)-7-methoxy-8-(4-4-[(3-phenylimidazo[1,5-a]pyridin-yl)carbonyl]piperazinobutoxy)-2,3,5,11a-tetrahydro-1H-benzo[e]pyrrolo[1,2-a]azepin-5-one], the IC50 in test [1] (Homo sapiens, HeLa, 48 h) worked out at 1240 nM; in test [2] (Homo sapiens), 15900 nM; in test [3] (Homo sapiens, HepG2, 48 h) it was 2830 nM; in test [4] (setting [6]) it was 2870 nM; in test [5] (Mus musculus), 2670 nM. For the same molecule, in the test on calf thymus DNA (CT-DNA), the “(ΔTm ° C.) after incubation at 37° C. for 0 h” value turned out to be 6.0 °C. Moreover, in the test with calf thymus DNA (CT-DNA), the “(ΔTm ° C.) after incubation at 37° C. for 18 h” value amounted to 8.9 °C.

Regarding `COc1cccc2c1C(=O)c1c(O)c3c(c(O)c1C2=O)C[C@@](O)(C(=O)CO)C[C@@H]3O[C@H]1C[C@H](N)[C@H](O)[C@H](C)O1` [ADR, adiramycin], the IC50 in test [1] came to 130 nM; in test [2], 2900 nM; in test [3], 1850 nM; in test [4] (MCF-7 cells) it was 1600 nM; in test [5], 340 nM.

Regarding `COc1ccc(-c2nc(C(=O)N3CCNCC3)c3ccccn23)cc1` [4b, [3-(4-methoxyphenyl)imidazo[1,5-a]pyridin-1-yl](piperazino)methanone], the IC50 in test [1] (Homo sapiens), in test [2] (Homo sapiens), in test [3] (Homo sapiens), in test [4] (setting [6]) and in test [5] (Mus musculus) was over 100000 nM in each case. The “(ΔTm ° C.) after incubation at 37° C. for 0 h” value in the test with calf thymus DNA (CT-DNA) amounted to 1.1 °C. In addition, the “(ΔTm ° C.) after incubation at 37° C. for 18 h” value in the test with calf thymus DNA (CT-DNA) was found to be 1.2 °C.

As to `O=C(c1nc(-c2ccccc2)n2ccccc12)N1CCNCC1` [4a, (3-phenylimidazo[1,5-a]pyridin-1-yl)(piperazino)methanone], the IC50 in test [1] (Homo sapiens), in test [2] (Homo sapiens), in test [3] (Homo sapiens), in test [4] (setting [6]) and in test [5] (Mus musculus) was over 100000 nM in each case. Moreover, in the test with calf thymus DNA (CT-DNA), the “(ΔTm ° C.) after incubation at 37° C. for 0 h” value came out at 1.0 °C. Further, in the test on calf thymus DNA (CT-DNA), the “(ΔTm ° C.) after incubation at 37° C. for 18 h” value came to 1.2 °C.

For `COc1cc2c(cc1OCCCCCN1CCN(C(=O)c3nc(-c4ccccc4)n4ccccc34)CC1)N=C[C@@H]1CCCN1C2=O` [7c], the IC50 in test [1] (Homo sapiens, HeLa, 48 h) is 1660 nM; in test [3], 3860 nM; in test [3] (Homo sapiens, HepG2, 48 h) it was 2700 nM; in test [4] (setting [6]), 2120 nM; in test [5] (Mus musculus), 1870 nM. In addition, the “(ΔTm ° C.) after incubation at 37° C. for 0 h” value in the test with calf thymus DNA (CT-DNA) was found to be 7.0 °C. For the same molecule, in the test on calf thymus DNA (CT-DNA), the “(ΔTm ° C.) after incubation at 37° C. for 18 h” value turned out to be 9.0 °C.

Take `O=C(c1nc(-c2ccc(C(F)(F)F)cc2)n2ccccc12)N1CCNCC1` [4c, piperazino3-[4-(trifluoromethyl)phenyl]imidazo[1,5-a]pyridin-1-ylmethanone]: the IC50 in test [1] (Homo sapiens), in test [2] (Homo sapiens), in test [3] (Homo sapiens), in test [4] (setting [6]) and in test [5] (Mus musculus) was over 100000 nM throughout. Besides, the “(ΔTm ° C.) after incubation at 37° C. for 0 h” value with calf thymus DNA (CT-DNA) worked out at 0.1 °C. Also, the “(ΔTm ° C.) after incubation at 37° C. for 18 h” value with calf thymus DNA (CT-DNA) was determined as 0.4 °C.
